The numbers were not newly measured in paper PMC5189927 (Molecular Psychiatry, 2014), which cites them from elsewhere.

Where a name gives a salt, the structure may show the parent alone.

Data set [1] has as its system glucocerebrosidase. Particulars: healthy volunteers.
Data set [2] deals with glucocerebrosidase.
In data set [3] the test system is α-galactosidase A. Particulars: Fabry patients with amenable mutations, phase 3, 12 months of treatment.
Data set [4] concerns α-galactosidase A. The following applies: healthy volunteers.
The subject of the next data set is β-hex A. The following applies: phase 1/2, Tay–Sachs and Sandhoff patients.

Take `OC[C@H]1CNC[C@@H](O)[C@@H]1O` [isofagomine, isofagomine tartrate]: in the data set on glucocerebrosidase [1], the “Increase in wild-type glucocerebrosidase levels” value was “two- to threefold”. Further, the “Glucocerebrosidase levels in peripheral blood mononuclear cells” value in the data set on glucocerebrosidase [2] (healthy volunteers (phase 1) and type I Gaucher patients (phase 2)) is given as “significantly increased”. Also, in the data set with glucocerebrosidase [2] (phase 2, doses and dosing regimens assessed), the “Gaucher patients with clinically meaningful end points” value was 1 of 18.
Regarding `OC[C@H]1NC[C@H](O)[C@@H](O)[C@H]1O` [migalastat, deoxygalactonojirimycin hydrochloride], in the data set with α-galactosidase A [3], the “Levels of kidney interstitial capillary GL-3” value is on record as “statistically significant reduction”. Moreover, the “Increase in wild-type α-galactosidase A levels” value in the data set on α-galactosidase A [4] is “two- to threefold”.
On to `CCc1nc(N)nc(N)c1-c1ccc(Cl)cc1` [pyrimethamine, Pyrimethamine], for which, in the data set with β-hex A, the Side effects result was “severe side effects” and the “β-hex A levels in patients” value is given as “increased β-hex A levels for all eight patients”.
